In paper PMC9572083, “Hybrids of 1,4-Quinone with Quinoline Derivatives: Synthesis, Biological Activity, and Molecular Docking with DT-Diaphorase (NQO1)” (Molecules, 2022):

What was measured:
H3 histone gene = assay: Transcriptional activity of H3 histone gene in A549 cells (RT-QPCR); assay type: cell-based, human; conditions: 24 h, concentration equal to half of IC50
Description: (§1) The mechanism of anticancer activity was determined by detection of transcriptional activity of the genes encoding a proliferation marker (H3 histone), cell cycle regulators (p53 and p21), and the mitochondrial apoptosis pathway (BCL-2 and BAX) (Figure 3a–d). The derivatives 11b, 12b, 13b, and 14b were selected for this study.
(§2) Transcriptional activity of genes (TP53, CDKN1A, BAX, and BCL-2) was rated by real-time RT-QPCR using Opticon™ DNA Engine system (MJ Research, Watertown, NY, USA) and QuantTect® SYBR® Green RT-PCR Kit (Qiagen, Hilden, Germany). Cultured cells were incubated with tested compounds for 24 h. RNA was extracted using Quick-RNA™ MiniPrep kit columns (Zymo Research, Irvine, CA, USA). The extracted RNA was assessed qualitatively and quantitatively. The amount and purity of the total RNA in extracts were determined spectrophotometrically (HP8452A apparatus, Hewlett Packard, Waldbronn, Germany).

HFF-1 cells = assay: Cytotoxic activity, WST-1 assay, normal fibroblasts HFF-1; assay type: cell-based; conditions: Homo sapiens, normal fibroblasts HFF-1, 72 h
Summary of the method: (§3)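 Cells seeded at 5 × 10^4/well in DMEM with 10% FCS at 37 °C, 5% CO2, and exposed 72 h to compounds at 1–100 µg/mL. WST-1 formazan read at 450 nm. IC50 is the µM concentration giving 50% growth inhibition, with Neg. meaning above 30 µM; mean of ≥3 independent triplicate experiments.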

[1] = biological target: T1, NQO1 (DT-diaphorase, EC 1.6.5.5, human recombinant) (Homo sapiens, UniProt P15559); assay: NQO1 substrate NADPH recycling enzymatic assay; assay type: biochemical; conditions: compound 10 µmol/L, pH 7.4, 25 °C, absorbance at 340 nm
T1 construct: purchased Sigma-Aldrich
T1 sequence (P15559 whole entry): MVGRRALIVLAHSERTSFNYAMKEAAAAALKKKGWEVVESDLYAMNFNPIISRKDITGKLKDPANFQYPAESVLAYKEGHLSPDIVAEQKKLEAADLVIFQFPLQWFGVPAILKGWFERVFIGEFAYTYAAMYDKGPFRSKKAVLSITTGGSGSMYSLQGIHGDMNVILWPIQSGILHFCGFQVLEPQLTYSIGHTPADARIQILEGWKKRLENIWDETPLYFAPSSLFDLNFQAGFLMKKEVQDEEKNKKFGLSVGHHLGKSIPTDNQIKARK
Summary of the method: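 Human recombinant NQO1 (1.4 µg/mL) in 50 mmol/L potassium phosphate, pH 7.4, was tested with compounds at 10 µmol/L. NADPH was dispensed to start the reaction, and A340 was read every 10 s for 5 min at 25 °C. Initial slopes were expressed as µmol NADPH/µmol NQO1/min against compound-free reactions.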

A549 cells = assay: Cytotoxic activity, WST-1 assay, lung cancer A549; assay type: cell-based, human; conditions: for SI (IC50 HFF-1/IC50 cancer line) A549: HFF-1 vs A549; for IC50: Homo sapiens, lung cancer A549, 72 h, WST-1
Summary of the method: as §3

Colo-829 cells = assay: Cytotoxic activity, WST-1 assay, melanoma Colo-829; assay type: cell-based, human; conditions: for SI (IC50 HFF-1/IC50 cancer line) Colo-829: HFF-1 vs Colo-829; for IC50: Homo sapiens, melanoma Colo-829, 72 h, WST-1
Summary of the method: as §3

CDKN1A = assay: Transcriptional activity of CDKN1A gene in A549 cells (RT-QPCR); assay type: cell-based, human; conditions: 24 h, concentration equal to half of IC50
Description: as §1, §2

SK-OV-3 cells = assay: Cytotoxic activity, WST-1 assay, ovarian cancer SK-OV-3; assay type: cell-based, human; conditions: for SI (IC50 HFF-1/IC50 cancer line) SK-OV-3: HFF-1 vs SK-OV-3; for IC50: Homo sapiens, ovarian cancer SK-OV-3, 72 h, WST-1
Summary of the method: as §3

T47D cells = assay: Cytotoxic activity, WST-1 assay, breast cancer T47D; assay type: cell-based, human; conditions: for SI (IC50 HFF-1/IC50 cancer line) T47D: HFF-1 vs T47D; for IC50: Homo sapiens, breast cancer T47D, 72 h, WST-1
Summary of the method: as §3

MDA-MB-231 cells = assay: Cytotoxic activity, WST-1 assay, breast cancer MDA-MB-231; assay type: cell-based, human; conditions: for SI (IC50 HFF-1/IC50 cancer line) MDA-MB-231: HFF-1 vs MDA-MB-231; for IC50: Homo sapiens, breast cancer MDA-MB-231, 72 h, WST-1
Summary of the method: as §3

TP53 = assay: Transcriptional activity of TP53 gene in A549 cells (RT-QPCR); assay type: cell-based, human; conditions: 24 h, concentration equal to half of IC50
Description: as §1, §2

MCF-7 cells = assay: Cytotoxic activity, WST-1 assay, breast cancer MCF-7; assay type: cell-based, human; conditions: for SI (IC50 HFF-1/IC50 cancer line) MCF-7: HFF-1 vs MCF-7; for IC50: Homo sapiens, MCF7, breast cancer MCF-7, 72 h, WST-1
Summary of the method: as §3

SMILES | Number of mRNA copies of the histone H3 gene (H3 histone gene) | IC50 (HFF-1 cells) | melting point | NQO1 activity (enzymatic conversion rate) [1] | SI (IC50 HFF-1/IC50 cancer line) A549 (A549 cells) | IC50 (A549 cells) | SI (IC50 HFF-1/IC50 cancer line) Colo-829 (Colo-829 cells) | IC50 (Colo-829 cells) | CDKN1A expression (copies of mRNA) (CDKN1A) | SI (IC50 HFF-1/IC50 cancer line) SK-OV-3 (SK-OV-3 cells) | IC50 (SK-OV-3 cells) | SI (IC50 HFF-1/IC50 cancer line) T47D (T47D cells) | IC50 (T47D cells) | SI (IC50 HFF-1/IC50 cancer line) MDA-MB-231 (MDA-MB-231 cells) | IC50 (MDA-MB-231 cells) | TP53 gene expression (TP53) | SI (IC50 HFF-1/IC50 cancer line) MCF-7 (MCF-7 cells) | IC50 (MCF-7 cells)
Cc1ccc2cccc(OC3=C(Cl)C(=O)c4ccncc4C3=O)c2n1 [Compound 13b, 6-chloro-7-[(2-methylquinolin-8-yl)oxy]isoquinoline-5,8-dione] | reduce the amount of mRNA copies by half | 26 ± 1.6 µM | 110 to 112 °C | 1143 ± 36 µmol NADPH/µmol NQO1/min | 45.68 | 0.57 ± 0.02 µM | 66.77 | 0.39 ± 0.11 µM | highest increase | 53.14 | 0.49 ± 0.05 µM | 20.19 | 1.29 ± 0.03 µM | 236.73 | 0.11 ± 0.01 µM | significant increase | 42.69 | 0.61 ± 0.09 µM
Cc1ccc2cccc(OC3=C(Cl)C(=O)c4ccccc4C3=O)c2n1 [Compound 14b, 2-chloro-3-[(2-methylquinolin-8-yl)oxy]naphthalene-1,4-dione] | reduce the amount of mRNA copies by half | 11.1 ± 1.62 µM | 100 to 102 °C | 1260 ± 15 µmol NADPH/µmol NQO1/min | 5.30 | 2.1 ± 0.29 µM | 0.74 | 15 ± 1.03 µM | slight effect | 0.66 | 16.8 ± 0.59 µM | 0.50 | 22.2 ± 1.03 µM | 0.58 | 19.2 ± 0.62 µM | slight increase | 0.68 | 16.3 ± 1.08 µM
